In patent US11878070B2, “Silk-based moisturizer compositions and methods thereof” (Evolved By Nature, Inc., priority 2015, dated 2024):

How the values were obtained:
Type in all cases: physicochemical
[1] = Silk gel formation (days to gelation / time to gel); conditions: 100 mg of vitamin C derivative in 15 mL of 2% silk solution
Source text: Samples 1-10 were used to examine the effect of silk to vitamin C ratio on serum gelation. Samples 1-3 with less vitamin C gelled quicker than samples 4 and 5. All other conditions were kept constant. Samples 6-8 with less vitamin C gelled quicker than samples 9 and 10. All other conditions were kept constant. It is concluded that decreasing the ratio of silk to vitamin C (increasing the amount of vitamin C) will lengthen the time to gel creation.
Samples 1, 3, 6, 8, O-1, O-2, O-3, and O-4 were used to examine the effect of temperature treatment on serum gelation time. Samples 1, 6, O-1, and O-2 were identical other than temperature treatment. Samples 3, 8, O-3, and O-4 were identical other than temperature treatment. The two groups differed in silk to vitamin C ratio. Time to serum gelation was directly related to temperature treatment with a higher temperature resulting in quicker serum gelation.
All treatments of silk solution for gel solution were in a conical tube at room temperature unless otherwise stated. […] Temperature affected gel creation time with higher temperatures resulting in quicker gel times. 50° C. treatment gelled in as quick as 2 days, 37° C. treatment gelled in as quick as 3 days, room temperature treatment gelled in 5-8 days and storage in a refrigerator took at least 39 days to gel. The effects of additives on gel creation were dependent on the additive. Vitamin E, Rosemary Oil and Rose Oil all had no effect on gel creation. […] Each also required the presence of vitamin C to gel. Lemon juice from a fresh lemon, pre-squeezed lemon juice from a plastic lemon container and lemon grass oil did affect gel creation. […] Both lemon juice types were able to cause gelation without the presence of vitamin C. This occurred in the same number of days as with vitamin C. The lemongrass oil was able to decrease the number of days to gelation to 2-3 days. Ail additives appeared soluble other than lemongrass oil and rose oil. Rose oil remained in yellow bubbles while the lemongrass oil was partially soluble and formed an albumen like chunk. […]

[2] = Dissolution of vitamin C derivative in aqueous silk solution
Source text: Ascorbyl tetraisopalmitate is a highly viscous, oil soluble liquid that might need the help of an emulsifier to possible dissolve in aqueous silk solution.

[3] = HPLC chromatograms of samples comprising vitamin C (degradation products); conditions: after 1 hour at ambient conditions without chemical stabilization
Description: No degradation products were visible.
No degradation products were visible. FIG. 59 is a table summarizing the vitamin C concentration in silk protein fragment-films (2% silk films air dried at RT) of the present disclosure. In FIG. 59 processing conditions included 100° C. extraction for 20 min, RT rinse, LiBr in 60° C. oven for 4-6 hours, FIG. 60 is a table summarizing the stability of vitamin C in chemically stabilized solutions. FIGS. 89A-89B are tables summarizing vitamin C stability in SPF gels without chemical stabilizers as compared to chemically stabilized vitamin C in competitive anti-aging skincare products. […] Without wishing to be bound by theory, it appears there is a relationship between vitamin C concentration, silk concentration, and gelation. An increase in vitamin C at a given concentration of silk will result in a longer time to gelation or inhibit gelation. This may be due to the vitamin C molecule physically blocking interaction between silk protein fragments or cross-linking of silk protein.

SMILES	time to gel formation [1]	further results
O=C1O[C@H]([C@@H](O)CO)C(O)=C1O[C@H]1O[C@H](CO)[C@@H](O)[C@H](O)[C@H]1O [Ascorbic acid-2-glucoside, Ascorbic Acid-2-Glucoside]	3 days	–
CCCCCCCCC(CCCCCC)C(=O)OC[C@H](OC(=O)C(CCCCCC)CCCCCCCC)[C@H]1OC(=O)C(OC(=O)C(CCCCCC)CCCCCCCC)=C1OC(=O)C(CCCCCC)CCCCCCCC (some centres unmarked) [Ascorbyl tetraisopalmitate, Ascorbyl Tetraisopalmitate]	–	ability to dissolve or be dispersed in aqueous silk solution [2]: unable to dissolve or be dispersed
O=C1O[C@H]([C@@H](O)CO)C(O)=C1O [vitamin C, L-ascorbic acid]	–	degradation products (HPLC) [3]: degradation products are visible

The next lines start with results.

time to gel formation [1]	SMILES	further results
failed to create a gel	O=C1O[C@H]([C@@H](O)CO)C([O-])=C1OP(=O)([O-])[O-].[Na+].[Na+].[Na+] [Sodium ascorbyl phosphate from Aromantic, Sodium Ascorbyl Phosphate]	–
28 days	O=C1O[C@H]([C@@H](O)CO)C([O-])=C1OP(=O)([O-])[O-].[Na+].[Na+].[Na+] [Sodium ascorbyl phosphate from DSM, Sodium Ascorbyl Phosphate]	–
